These results are taken from patent US20060222628A1, “Gallium complexes of 3-hydroxy-4-pyrones to treat infection by intracellular prokaryotes and DNA viruses” (priority 1999, published 2006).

The subject of one data set is Epstein-Barr Virus (EBV). Put plainly: Clinical evaluation for Epstein-Barr virus (EBV) infection. The data set is classed as in vivo, human. The protocol:
Some of the methods employed in the clinical studies discussed in the following references are used in the evaluation: Schneider et al. (2000), “Regression of Epstein-Barr virus-associated lymphoproliferative disorders in patients with acquired immunodeficiency syndrome during therapy with foscarnet,” Ann. Hematol. 79(4):214-6. Patients with EBV infection are treated once per day with gelatin capsules containing gallium maltolate. The patients are divided randomly and blindly into two approximately equal groups with four approximately equal subgroups that receive either 0 (placebo), 250, 500, or 750 mg/day gallium maltolate for about six months. The first group receive the gallium maltolate dose together with 500 mg ganciclovir twice per day. The second group receive the gallium maltolate dose together with 5500 mg foscarnet, IV infusion over 1.5-2 hr., twice per day. Patients are medically monitored for resolution of EBV infection, with histopathologic examination of hematologic smears to assess characteristic cells an lymphocyte levels. In addition blood serum samples are obtained from the patients at days 1, 3, 7, 10, 14, 17, 21, 24 and 28 and are assayed for EBV particles by routine methods and for EBV DNA (viral load assay) using PCR.

The next data set deals with hepatitis B. Put plainly: Clinical evaluation in co-infection by HIV and hepatitis B: hepatitis B. It is filed as in vivo, human. The protocol:
Gallium maltolate is evaluated clinically for efficacy in treating hepatitis B co-infection of a HIV-1 patients. In addition to the methods used in Example 5 for evaluating the HIV disease, the methods employed in the clinical studies discussed in the following references are used in the evaluation: Yao et al. (1997), “Treatment of Chronic Hepatitis B: New Antiviral Therapies,” Curr. Gastroenterol. Rep. 1(1):20-26; Hoofnagle et al. (1997), “New therapies for chronic hepatitis B,” supra.
Patients are treated once per day with gelatin capsules containing gallium maltolate. The population of patients with hepatitis B and HIV infection are first divided into two subpopulations groups based on CD4+ counts (above 350/mm^3 and below 350/mm^3). […]
In each subpopulation, the first group's four subgroups from each subpopulation (above 350/mm^3 and below 350/mm^3) additionally receive the gallium maltolate dose together with 10 million IU interferon by injection once per day. […] Patients are monitored for HIV disease precisely as described in Example 5. Patients are also medically monitored for liver disease, including liver function testing and examination for medical symptoms of hepatitis B infection throughout the study, with careful attention to the possibility that the drugs themselves may cause some liver disease and elevate the liver function tests. […]

The next data set has as its system EBV and KSV. Put plainly: Clinical evaluation for prevention of EBV or KSV neoplasms in HIV patients: neoplasia. It is filed as in vivo, human. From the text:
(§1) Both EBV and KSV cause neoplasms, with both causing lymphomas and KSV ([…]) along with HHV-7, possibly in concert with HHV-6 associated with the pathogenesis of Kaposi Sarcoma. Most humans carry all these viruses. A HIV population could be studied without determining whether any of the patients are seropositive or culturable for these pathogens, or preferably a group of HIV patients who are seropositive or culture positive for both EBV and KSV can be identified. Applying the methods of Example 12 with additional guidance from Schneider et al. (2000), supra, yields a protocol for evaluating the contribution of the gallium compounds of the invention in prevention of opportunistic neoplasms caused by the herpes viruses with combination antiviral therapy.
Using essentially the same protocol as Example 12, but with an HIV infected patient population that is seropositive or culture positive for both EBV and KSV and substituting the specific assays such as PCR, serodetection for the EBV and KSV viruses, the role of gallium as a combination agent in preventing the neoplasms caused by members of the herpesvirus family in HIV disease can be evaluated. The subpopulations are divided according to CD4 counts as in Example 12. Each subpopulation's first group is treated in addition to the foscarnet with interferon-alpha. Each subpopulation's second group is treated in addition to the ganciclovir with the same doses of foscarnet and interferon-alpha as the first group. The dosages of the foscarnet and are as in Example 12, as are the dosages for the gallium maltolate for each groups four subgroups. Thus within each subpopulation, gallium plus foscarnet plus traditional HAART is compared to gallium plus foscarnet plus traditional HAART plus ganciclovir. An all oral regimen would be preferable but success would be unlikely. The dosage level for the interferon-alpha used is that used for treating Kaposi Sarcoma (20 million IU every day by injection), a dose that may require adjustment for tolerance in some patients. […]

A further data set deals with HIV. Put plainly: Clinical evaluation for prevention of EBV or KSV neoplasms in HIV patients: HIV. It is filed as in vivo. To be noted: neoplasm prevention study; MacSynergy II.
Description: as §1
Using essentially the same protocol as Example 12, but with an HIV infected patient population that is seropositive or culture positive for both EBV and KSV and substituting the specific assays such as PCR, serodetection for the EBV and KSV viruses, the role of gallium as a combination agent in preventing the neoplasms caused by members of the herpesvirus family in HIV disease can be evaluated. The subpopulations are divided according to CD4 counts as in Example 12. Each subpopulation's first group is treated in addition to the foscarnet with interferon-alpha. […]

The conditions of data set [1]: in vivo, po; cited from earlier work.

In the case of `Cc1occc(=O)c1[O-].Cc1occc(=O)c1[O-].Cc1occc(=O)c1[O-].[Ga+3]` [gallium maltolate, tris(3-hydroxy-2-methyl-4H-pyran-4-onato)gallium], the “Efficacy of combination with ganciclovir or foscarnet versus single agents” value with Epstein-Barr Virus (EBV) (EBV) is on record as “more effective than either agent alone”. Besides, the “Synergy with nucleoside analogs” value with Epstein-Barr Virus (EBV) (EBV, MacSynergy II) is “synergy of gallium with both nucleoside analogs is also demonstrated”. Further, the “Efficacy in treating EBV infection” value in the data set on Epstein-Barr Virus (EBV) (HIV negative patients, 250-750 mg/day oral with ganciclovir or foscarnet) is given as “effective for treating EBV infection, including recurrent sores as well as more serious systemic disease”. Besides, the “Efficacy in treating hepatitis B infection in combination” value in the data set with hepatitis B (HIV co-infected patients on HAART, with interferon-alpha or lamuvidine) was “effective in combination with interferon and interferon plus nucleoside analogs”. Also, the “Synergy in treating hepatitis B infection” value with hepatitis B (with interferon and interferon plus nucleoside analogs) is reported as “synergistic with both”. The “Efficacy in preventing herpesvirus neoplasia in combination” value in the data set with EBV and KSV (HIV infected patients on HAART, with foscarnet, interferon-alpha, ganciclovir) was “effective in combination with foscarnet, interferon and ganciclovir”. Besides, the “Prevention of opportunistic herpesvirus associated neoplasms” value with EBV and KSV (combined with foscarnet, ganciclovir and interferon, high CD4+ group) is on record as “producing the best results”. In addition, in the data set on EBV and KSV (with foscarnet, interferon and ganciclovir), the “Synergy in preventing herpesvirus neoplasia” value was “synergistic with all”. Besides, the “Synergy with the HAART regime on HIV infection” value in the data set on HIV was “synergistic with the HAART regime in their effects upon the HIV infection”. For the same compound, the Renotoxicity or nephrotoxicity result in data set [1] was “no renotoxicity or nephrotoxicity has been observed”.
